Test system: actin
Assay: polymerization of actin (in vitro test)
Format: cell-based
Conditions: compared to control
Excerpt: Typically, the selected or purified maltodextrins described herein have the following properties: • a moisturizing and gelling (film-forming) action; • a stimulating action of fibroblasts and keratinocytes proliferation, responsible for the formation of granulation tissue and producers of collagen, elastin, proteoglycans, and other glycoproteins that intervene in the tissue regeneration phase • a skin regenerating action, found with representative in vitro tests such as synthesis of fibronectin, polymerization of actin, expression of enzymes such as Hyaluronan Synthase-2 • a skin protective action following the formation of an epidermal barrier

## phosphatidic acid [PA]
  polymerization of actin increase: 100%

Source: patent publication EP3760185A1, “COSMETIC COMPOSITION TO PREVENT AND DELAY SKIN AGING” (Riccio, Rodolfo, priority 2019, dated 2021)
